# Measurements taken from publication PMC11271627, “Molecular dynamics-guided optimization of BGM0504 enhances dual-target agonism for combating diabetes and obesity” (Scientific Reports, 2024).
# Marks after values point to notes of the source that are not given here.
# Tested on: STZ + HFD-induced C57BL/6 mice
# Assay: STZ + HFD-induced diabetes and NASH model in C57BL/6 mice
# Format: in vivo
# Conditions: Mean±SEM; for Ballooning Degeneration score / Inflammatory Cell Infiltration score / NAS (NAFLD Activity Score) / Steatosis score: liver H&E staining; for Fibrosis percentage: liver Sirius red staining, fibrosis area of total section area; for ALT / AST: serum; for ALT: HFD 8 weeks
# Experimental: Both the control and model groups received a subcutaneous injection of the drug vehicle, while only the model group was fed a high-fat diet (HFD). […] This experiment involved selecting 30 SPF grade C57BL/6 pregnant female mice provided by Shanghai Jihui Experimental Animal Breeding Co., Ltd. Newborn male mice underwent subcutaneous injection of STZ (streptozotocin) (100 μg each) within 48 hours after birth and were nursed by their mothers for 4 weeks. During this period, we measured the fasting blood glucose of the mice and selected 65 diabetic male mice with fasting blood glucose values greater than or equal to 12 mmol/L as experimental animals. These mice were fed a HFD for 8 weeks to establish the STZ + HFD-induced diabetes and Nonalcoholic Steatohepatitis (NASH) model in male C57BL/6 mice. Fasting blood sugar was detected after 1 week of HFD feeding in these NASH model mice. Based on fasting blood sugar and body weight, they were randomly divided into the model group, the Tirzepatide-0.15 mg/kg group, the BGM0504-0.05 mg/kg group, the BGM0504-0.15 mg/kg group, and the BGM0504-0.5 mg/kg group. The treatment groups received administration once every 3 days. Additionally, their mothers nursed 10 newborn male mice without STZ injection for 4 weeks and then fed a regular maintenance diet as a control group. After HFD feeding, body weights were measured, and the animals’ food intake was recorded every 3 days until the end of the experiment. Three days after the last dose, animal weights were measured. Following a 6-hour fasting period, all experimental animals were anesthetized with an intraperitoneal injection of sodium pentobarbital. Non-anticoagulated whole blood was collected through the orbital venous plexus, left at room temperature for 30 minutes, and centrifuged at 5000 rpm for 5 minutes. The serum was separated and stored at -80°C for biochemical testing. After thawing the frozen serum samples, serum ALT, AST, TG, TC, HDL-c and LDL-c levels […] were measured using a Hitachi 7060 automatic biochemical detector. Insulin content was determined using an enzyme-linked immunoassay kit. After the dissection procedure, the liver was perfused with pre-cooled saline and then obtained and photographed. Its weight was also measured. Subsequently, the liver was immersed in 10% formalin for fixation and divided into two parts. One part underwent pathological hematoxylin and eosin (H&E) staining. The H&E staining was conducted on paraffin sections of all animal livers following the KCI pathology staining standard operating procedure (SOP). These stained sections were panoramically scanned using a NanoZoomer Digital Pathology scanner. Different fields of view were selected for observation at various magnifications, and the liver lobes in the sections were scored. The other part was subjected to pathological Sirius red (SR) staining. Similarly, SR staining was performed on paraffin sections of the liver following the KCI pathology staining SOP. The stained sections were also panoramically scanned using the NanoZoomer Digital Pathology scanner. Subsequently, VIS7.0 software was utilized to analyze the liver fibrosis area in the panoramically examined SR-stained sections, and the percentage of the liver fibrosis area with the total section area was calculated.
# [1] = 0.05 mg/kg once every 3 days, n=11
# [2] = 0.15 mg/kg once every 3 days, n=13
# [3] = 0.5 mg/kg once every 3 days, n=13
smiles,measurement,setting,value
CC[C@H](C)[C@H](NC(=O)[C@H](CC(C)C)NC(=O)[C@H](Cc1c[nH]c2ccccc12)NC(=O)[C@H](CCC(N)=O)NC(=O)[C@@H](NC(=O)[C@H](Cc1ccccc1)NC(=O)[C@H](C)NC(=O)[C@H](CCCCN)NC(=O)[C@H](CCC(N)=O)NC(=O)[C@H](C)NC(=O)[C@@H](NC(=O)[C@H](CCCCN)NC(=O)[C@H](CC(=O)O)NC(=O)[C@H](CC(C)C)NC(=O)C(C)(C)NC(=O)[C@@H](NC(=O)[C@H](CO)NC(=O)[C@H](Cc1ccc(O)cc1)NC(=O)[C@H](CC(=O)O)NC(=O)[C@H](CO)NC(=O)[C@@H](NC(=O)[C@H](Cc1ccccc1)NC(=O)[C@@H](NC(=O)CNC(=O)[C@H](CCC(=O)O)NC(=O)C(C)(C)NC(=O)[C@@H](N)Cc1ccc(O)cc1)[C@@H](C)O)[C@@H](C)O)[C@@H](C)CC)[C@@H](C)CC)C(C)C)C(=O)N[C@@H](C)C(=O)NCC(=O)NCC(=O)N1CCC[C@H]1C(=O)N[C@@H](CO)C(=O)N[C@@H](CO)C(=O)NCC(=O)N[C@@H](C)C(=O)N1CCC[C@H]1C(=O)N1CCC[C@H]1C(=O)N1CCC[C@H]1C(=O)N[C@@H](CO)C(=O)N[C@@H](CCCCNC(=O)COCCOCCOCCNC(=O)COCCOCCOCCNC(=O)CC[C@H](NC(=O)CCCCCCCCCCCCCCCCCCC(=O)O)C(=O)O)C(N)=O [BGM0504],HDL-c,[1],2.30 ± 0.09 mmol/L
same,LDL-c,[1],0.56±0.03^b mmol/L
same,TC,[1],3.81±0.15^c mmol/L
same,TG,[1],1.09±0.20^b mmol/L
same,HDL-c,[2],1.83 ± 0.22 mmol/L
same,LDL-c,[2],0.65±0.10^c mmol/L
same,TC,[2],3.25±0.12^c mmol/L
same,TG,[2],0.84±0.12^b mmol/L
same,HDL-c,[3],2.13 ± 0.13 mmol/L
same,LDL-c,[3],0.62±0.03^c mmol/L
same,TC,[3],3.53±0.09^c mmol/L
same,TG,[3],0.88±0.14^b mmol/L
same,Ballooning Degeneration score,"0.05 mg/kg, n=11",0.00±0.00
same,Inflammatory Cell Infiltration score,"0.05 mg/kg, n=11",0.91±0.08^a
same,NAS (NAFLD Activity Score),"0.05 mg/kg, n=11",1.42±0.14^a
same,Steatosis score,"0.05 mg/kg, n=11",0.52±0.12^a
same,Ballooning Degeneration score,"0.15 mg/kg, n=13",0.00±0.00^a
same,Inflammatory Cell Infiltration score,"0.15 mg/kg, n=13",0.90±0.06^a
same,NAS (NAFLD Activity Score),"0.15 mg/kg, n=13",1.36±0.15^a
same,Steatosis score,"0.15 mg/kg, n=13",0.46±0.13^a
same,Ballooning Degeneration score,"0.5 mg/kg, n=13",0.00±0.00
same,Inflammatory Cell Infiltration score,"0.5 mg/kg, n=13",1.03±0.05^a
same,NAS (NAFLD Activity Score),"0.5 mg/kg, n=13",1.36±0.10^a
same,Steatosis score,"0.5 mg/kg, n=13",0.33±0.08^a
same,Fibrosis percentage,"0.05 mg/kg, n=11",1.11±0.05^a %
same,Fibrosis percentage,"0.15 mg/kg, n=13",1.10±0.04^b %
same,Fibrosis percentage,"0.5 mg/kg, n=13",1.07±0.05^c %
same,ALT,[1],73.97±9.20 U/L
same,AST,[1],155.44±10.85 U/L
same,ALT,[2],67.58±7.73^a U/L
same,AST,[2],152.48±6.56^a U/L
same,ALT,[3],58.46±5.38^b U/L
same,AST,[3],150.54±6.26^a U/L
